According to patent US20030157516A1, “G protein coupled receptor” (priority 2000, published 2003):
Values joined by “and” are separate entries in the source; they are usually repeats but may differ in a detail not shown here. Equal entries are not always repeated. Where two headings read alike, the source gives them in different places.

Assays:
[1] = target: T1, rat adenine binding GPCR (Rattus norvegicus, UniProt Q7TN49); assay: FLIPR Ca2+ transient assay, agonism, HEK293/Gq chimera cells transiently transfected with rat adenine binding GPCR/pcDNA3; assay type: cell-based; set-up: The full length reading frame was inserted into the mammalian expression vector pcDNA3; expressed in transfected cells; host or cells: HEK293 cells stably transfected with pLEC/Gqi or pLEC/Gqo; conditions: for calcium transients elicited: HEK293/Gaqo cells, 3.3 μM; for agonistic effects on Ca2+ transients: concentrations ranging from 30 μM to 30 pM
T1 sequence (Q7TN49 1-304): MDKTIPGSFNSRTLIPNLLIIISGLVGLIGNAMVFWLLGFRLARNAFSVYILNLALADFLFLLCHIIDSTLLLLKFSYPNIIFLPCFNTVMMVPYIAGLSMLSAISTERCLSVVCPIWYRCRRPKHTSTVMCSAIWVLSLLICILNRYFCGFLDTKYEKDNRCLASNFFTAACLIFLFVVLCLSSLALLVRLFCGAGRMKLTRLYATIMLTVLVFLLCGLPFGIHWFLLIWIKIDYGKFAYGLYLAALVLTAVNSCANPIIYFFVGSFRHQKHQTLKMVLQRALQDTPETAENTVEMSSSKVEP
From the text: This assay is based around an instrument called a FLuorescence Imaging Plate Reader ((FLIPR®), Molecular Devices Corporation). In its most common configuration, it excites and measures fluorescence emitted by fluorescein-based dyes. It uses an argon-ion laser to produce high power excitation at 488 nm of a fluorophore, a system of optics to rapidly scan the over the bottom of a 96-/384-well plate and a sensitive, cooled CCD camera to capture the emitted fluorescence. It also contains a 96-/384-well pipetting head allowing the instrument to deliver solutions of test agents into the wells of a 96-/384-well plate. The FLIPR assay is designed to measure fluorescence signals from populations of cells before, during and after addition of compounds, in real time, from all 96-/384-wells simultaneously. […] As described below, calcium transients in cells transfected with adenine binding GPCR were measured using the FLIPR assay in order to measure activation of the receptors by various substrates in order to determine the natural ligand of the receptor.
The full length reading frame was inserted into the mammalian expression vector pcDNA3 (Invitrogen, Carlsbad, Calif., U.S.A.) and the resulting expression construct was transiently transfected with the FuGENE 6 reagent (Roche Molecular Biochemicals, Mannheim, Germany) into HEK293 cells stably transfected (E. Bender, unpublished) with pLEC/Gqi or pLEC/Gqo (Molecular Devices, Sunnyvale, Calif., U.S.A.). The cells were loaded with Fluo-4 (Molecular Probes, Eugene, Oreg., U.S.A.) according to the recommendations of the supplier. […]
Using the FLIPR assay as above, calcium transients were measured in both sets of cells with the transients attributable to the novel GPCR measured as the difference between the two transients. Results are illustrated in FIG. 4. […]

[2] = target: T2, adenine binding GPCR (Rattus norvegicus, UniProt Q7TN49); assay: FLIPR Ca2+ transient assay, antagonism of 30 nM adenine challenge; assay type: cell-based; conditions: 15 minutes incubation with compound (30 μM to 30 pM), then challenge with 30 nM adenine
T2 construct: The full length reading frame was inserted into the mammalian expression vector pcDNA3; expressed in transfected cells; host or cells: HEK293 cells stably transfected with pLEC/Gqi or pLEC/Gqo
T2 sequence (Q7TN49 1-304): T1 sequence (Q7TN49 1-304)
From the text: The full length reading frame was inserted into the mammalian expression vector pcDNA3 (Invitrogen, Carlsbad, Calif., U.S.A.) and the resulting expression construct was transiently transfected with the FuGENE 6 reagent (Roche Molecular Biochemicals, Mannheim, Germany) into HEK293 cells stably transfected (E. Bender, unpublished) with pLEC/Gqi or pLEC/Gqo (Molecular Devices, Sunnyvale, Calif., U.S.A.). The cells were loaded with Fluo-4 (Molecular Probes, Eugene, Oreg., U.S.A.) according to the recommendations of the supplier.
After a 15 minutes incubation at room temperature, the same cells were challenged with 30 nM adenine, to detect antagonistic properties of molecules added in the first round of superfusion.

[3] = target: T3, adenine binding rat receptor (Rattus norvegicus, UniProt Q7TN49); assay: [3H]adenine competition binding on CHO membranes transiently transfected; conditions: transfected cells, 15 nM [3H]adenine
T3 construct: expressed in transfected cells; host or cells: CHO cells, transient, lipofectamine PLUS
T3 sequence (Q7TN49 1-304): T1 sequence (Q7TN49 1-304)
Experimental: (§1) The membranes were prepared as total particulate fractions. The cell lines were cultured to 906 confluency on 145 mm petri dishes and treated with 5 mM sodium butyrate, 24 hours before collection. The culturing medium was removed and the cells were washed twice with ice cold phosphate buffered saline (PBS without Ca^2+ and Mg^2+), scraped from the plates in 50 mM Tris-HCl buffer, pH 7.4, and collected by centrifugation (10 minutes at 16,000 RPM at 4° C.). The cell pellet was re-suspended in hypotonic 5 mM Tris-HCl buffer, pH 7.4, and homogenized with an Ultra Turrax homogenizer (Janker Kunkel, Germany). The homogenate was centrifuged at 18,000 RPM for 20 minutes at 4° C. The final pellet was re-suspended in 50 mM Tris-HCl buffer, pH 7.4 and stored in aliquots at −70° C. A protein determination was performed using the Bradford protein assay (Biorad, Germany) using bovine serum albumin (BSA) as standard.
(§2) A) Methods—[3H]Adenine binding experiments were performed to characterize wild type cell lines before transfection as well as transiently and permanently transfected cell lines. Membranes were thawed on ice and diluted in 50 mM HEPES buffer, pH 7.4 supplemented with 10 mM MgCl2 and 1 mM EGTA. […] Both assays were carried out in a final volume of 500 μl, using 18 μg of membrane protein for the transfected CHO cells and 30 μg of membrane protein for the wild type CHO cells for the saturation binding. For competition binding experiments, 15 and 50 μg of membrane protein was used for the transfected and wild type cells, respectively. The reaction was terminated by rapid filtration through Whatman GF/B filters using a Brandel multi-channel cell harvester (96 wells). The filters were washed three times with 3 ml ice cold 50 mM HEPES buffer, pH 7.4, transferred to liquid scintillation vials and 3 ml of scintillation fluid (Ultima Gold MV, Packard, Netherlands) was added. Samples were counted in a β-scintillation counter after at least 6 hours to permit the glass fiber filters to become uniformly translucent.

[4] = tested on: wild type CHO cells; assay: [3H]adenine competition binding on wild type CHO membranes; conditions: 15 nM [3H]adenine
Experimental: as §1, with “The cell lines were cultured to 906 confluency on 145 mm petri dishes and treated with 5 mM sodium butyrate, 24 hours before collection.” left out
as §2, with “Membranes” for “A) Methods—[3H]Adenine binding experiments were performed to characterize wild type cell lines before transfection as well as transiently and permanently transfected cell lines. Membranes”

[5] = target: T3, adenine binding rat receptor; assay: [35S]GTPγS binding on CHO membranes transiently transfected; assay type: biochemical; conditions: transiently transfected cells; for % stim.: increase above basal; for EC50: read-out: pEC50 (converted)
Experimental: a) Methods—Determination of [^35S ]GTPγS binding to the G-proteins was carried out according to a modified procedure of Lazareno (Methods Mol. Biol., 83:107-116, 1997). These experiments were performed for a first functional evaluation of the receptor on the level of a membrane preparation.
The assay mixture contained 10 and 35 μg of membrane protein for the transfected and wild type CHO cells, respectively.
For testing agonistic activity, 175 μl of diluted membranes was pre-incubated in the buffer described above together with 25 μl of buffer and 25 μl of varying concentrations of the compound in a total volume of 225 μl. After a 20 minute pre-incubation period at 30° C., 25 μl of [^35S]GTPγS was added to a final concentration of 0.25 nM and the assay mixtures were further incubated for 20 minutes at 30° C. Bound and free [^35S]GTPγS were separated by rapid filtration over an UniFilter™-96, GF/B™ under reduced pressure using Filtermate 196 filtration (Packard Company (Netherlands). The amount of bound radioactivity on the filter unit was determined after drying of the filters and scintillant addition (Microscint-O; Packard Company) by liquid scintillation counting.
Basal [^35S]GTPγS binding was measured in absence of compounds. Stimulation by agonist was calculated as the percentage increase above basal levels. The sigmoid agonist concentration-response curves were analyzed by non-linear regression using the GraphPad Prism program. The different concentration points were run in duplicates and the reported data were retrieved from independent experiments.

Row | Compound | agonistic effects on Ca2+ transients [1] | antagonistic effect [2] | Ki ([3]; mean of n experiments) | Ki ([3]; single experiments) | pIC50 ([4]; mean of n experiments) | pIC50 ([4]; single experiments) | other results
1 | O=c1ccn([C@@H]2O[C@H](COP(=O)(O)OP(=O)(O)O)[C@@H](O)[C@H]2O)c(=O)[nH]1 [UDP] | No further agonistic effects | did not elicit antagonistic effects | – | – | – | – | calcium transients elicited [1]: could not be elicited
2 | O=c1[nH]c(=O)c2[nH]cnc2[nH]1 [xanthine] | No further agonistic effects | did not elicit antagonistic effects | – | – | – | – | calcium transients elicited [1]: could not be elicited
3 | Cn1c(=O)c2[nH]cnc2n(C)c1=O [theophylline] | No further agonistic effects | did not elicit antagonistic effects | – | – | – | – | –
4 | reactive blue | No further agonistic effects | did not elicit antagonistic effects | – | – | – | – | –
5 | COc1cccc2c1C(=O)c1c(O)c3c(c(O)c1C2=O)C[C@@](O)(C(C)=O)C[C@@H]3O[C@H]1C[C@H](N)[C@H](O)[C@H](C)O1 [Daunomycin] | – | – | 31.3 µM | 31 µM | <4 | <4 | IC50 ([3]; mean of n experiments): 50.1 µM; IC50 ([3]; single experiments): 50.1 µM
6 | c1ccc(CNc2ncnc3nc[nH]c23)cc1 [6-Benzylaminopurine] | – | – | 58.3 µM | 61.4 µM and 54.1 µM | <4 | <4 | IC50 ([3]; mean of n experiments): 93.3 µM; IC50 ([3]; single experiments): 87.1 µM; stimulation normalized to maximum adenine response ([5]; adenine stimulation of same experiment = 100%): (11% ref); % stim. ([5]; mean of n experiments): 12%; % stim. ([5]; single experiments): 12%; EC50 ([5]; mean of n experiments): > 100 µM; EC50 ([5]; single experiments): > 100 µM

Now from value to compound, other results behind:

Row | agonistic effects on Ca2+ transients [1] | antagonistic effect [2] | Ki ([3]; mean of n experiments) | Ki ([3]; single experiments) | Compound | pIC50 ([4]; mean of n experiments) | pIC50 ([4]; single experiments) | other results
7 | No further agonistic effects | did not elicit antagonistic effects | 52.8 µM | 58.5 µM (2×) and 40.7 µM | Nc1ncnc2c1ncn2[C@@H]1O[C@H](COP(=O)(O)OP(=O)(O)OP(=O)(O)O)[C@@H](O)[C@H]1O [ATP] | <4 | <4 | pIC50 ([3]; mean of n experiments): 4.07; pIC50 ([3]; single experiments): 4.02 and 4.18
8 | No further agonistic effects | did not elicit antagonistic effects | – | – | O=c1ccn([C@@H]2O[C@H](COP(=O)(O)OP(=O)(O)OP(=O)(O)O)[C@@H](O)[C@H]2O)c(=O)[nH]1 [UTP] | – | – | –
9 | – | – | 27.9 µM | 27.8 µM | COc1cccc2c1C(=O)c1c(O)c3c(c(O)c1C2=O)C[C@@](O)(C(=O)CO)C[C@@H]3O[C@H]1C[C@H](N)[C@H](O)[C@H](C)O1 [Adrianamycin] | <4 | <4 | pIC50 ([3]; mean of n experiments): 4.35; pIC50 ([3]; single experiments): 4.35
10 | – | did not elicit antagonistic effects | – | 44.6 µM | Nc1ncnc2c1ncn2[C@@H]1O[C@H](CO)[C@@H](O)[C@H]1O [Adenosine, adenosine] | <4 | <4 | IC50 ([3]; mean of n experiments): ~100 µM; IC50 ([3]; single experiments): > 100 µM and 72.4 µM; agonism of nucleoside and nucleotide derivatives of adenine ([1]; at high concentrations (>3.3 μM)): weak partial agonism
11 | No further agonistic effects | did not elicit antagonistic effects | – | – | Cc1ccc(C(=O)Nc2ccc(S(=O)(=O)O)c3cc(S(=O)(=O)O)cc(S(=O)(=O)O)c23)cc1NC(=O)c1cccc(NC(=O)Nc2cccc(C(=O)Nc3cc(C(=O)Nc4ccc(S(=O)(=O)O)c5cc(S(=O)(=O)O)cc(S(=O)(=O)O)c45)ccc3C)c2)c1 [suramin] | – | – | –
